{
  "source": "paper PMC5218480",
  "about": "(PLoS ONE, 2017)",
  "system": "MV-4-11 cells",
  "test": "Gene expression microarray analysis (Affymetrix PrimeView) and GSEA",
  "assay_type": "cell-based, human",
  "design": "RFU PODN (11730768_x_at) / Fold change /veh PODN (11730768_x_at) / RFU LINC00158 (11744669_a_at) / Fold change /veh LINC00158 (11744669_a_at) / RFU DUSP10 (11751237_a_at) / Fold change /veh DUSP10 (11751237_a_at) / RFU ID3 (11757404_x_at) / Fold change /veh ID3 (11757404_x_at) / RFU PLEKHG5 (11737974_s_at) / Fold change /veh PLEKHG5 (11737974_s_at) / RFU LRRC4B (11730491_at) / Fold change /veh LRRC4B (11730491_at) / RFU GIMAP4 (11747438_a_at) / Fold change /veh GIMAP4 (11747438_a_at) / RFU KRT8 (11758183_x_at) / Fold change /veh KRT8 (11758183_x_at) / RFU CNN1 (11734310_a_at) / Fold change /veh CNN1 (11734310_a_at) / RFU VPS37D (11726825_at) / Fold change /veh VPS37D (11726825_at) / RFU C10orf10 (11716522_x_at) / Fold change /veh C10orf10 (11716522_x_at) / RFU KIR2DL2 /// KIR2DL4 /// KIR2DL5A /// KIR2DL5B /// KIR2DS1 /// KIR2DS2 /// KIR2DS3 /// KIR2DS4 /// KIR3DL3 /// KIR3DL3 /// KIR3DS1 (11738374_at) / Fold change /veh KIR2DL2 /// KIR2DL4 /// KIR2DL5A /// KIR2DL5B /// KIR2DS1 /// KIR2DS2 /// KIR2DS3 /// KIR2DS4 /// KIR3DL3 /// KIR3DL3 /// KIR3DS1 (11738374_at) / RFU C1QL1 (11718748_at) / Fold change /veh C1QL1 (11718748_at) / RFU TMPRSS4 (11747572_a_at) / Fold change /veh TMPRSS4 (11747572_a_at) / RFU HAMP (11756126_x_at) / Fold change /veh HAMP (11756126_x_at) / RFU RNFT2 (11725882_a_at) / Fold change /veh RNFT2 (11725882_a_at) / RFU NR4A2 (11747474_a_at) / Fold change /veh NR4A2 (11747474_a_at) / RFU ABCC12 (11746883_a_at) / Fold change /veh ABCC12 (11746883_a_at) / RFU TMEM136 (11760407_x_at) / Fold change /veh TMEM136 (11760407_x_at) / RFU CLDN22 /// WWC2 (11732394_at) / Fold change /veh CLDN22 /// WWC2 (11732394_at) / RFU HLA-DPB1 (11760878_x_at) / Fold change /veh HLA-DPB1 (11760878_x_at) / RFU SPINT1 (11716480_a_at) / Fold change /veh SPINT1 (11716480_a_at) / RFU GAP43 (11754022_s_at) / Fold change /veh GAP43 (11754022_s_at) / RFU A4GNT (11735810_at) / Fold change /veh A4GNT (11735810_at) / RFU PRB3 (11715151_x_at) / Fold change /veh PRB3 (11715151_x_at) / RFU TUBB4B (11761932_at) / Fold change /veh TUBB4B (11761932_at) / RFU CAPN14 (11732068_a_at) / Fold change /veh CAPN14 (11732068_a_at) / RFU TMCC2 (11721928_a_at) / Fold change /veh TMCC2 (11721928_a_at) / RFU IRGQ (11745062_a_at) / Fold change /veh IRGQ (11745062_a_at) / RFU FAM174B (11720279_a_at) / Fold change /veh FAM174B (11720279_a_at) / RFU TMPRSS4 (11748680_a_at) / Fold change /veh TMPRSS4 (11748680_a_at) / RFU FAM212B (11763350_a_at) / Fold change /veh FAM212B (11763350_a_at) / RFU PLEKHG5 (11743358_a_at) / Fold change /veh PLEKHG5 (11743358_a_at) / RFU ZSCAN30 (11745921_a_at) / Fold change /veh ZSCAN30 (11745921_a_at) / RFU CMKLR1 (11741424_a_at) / Fold change /veh CMKLR1 (11741424_a_at) / RFU LOC101060620 /// MAPK8IP1 (11723275_at) / Fold change /veh LOC101060620 /// MAPK8IP1 (11723275_at) / RFU SPTSSB (11747773_x_at) / Fold change /veh SPTSSB (11747773_x_at) / RFU PRSS12 (11739890_at) / Fold change /veh PRSS12 (11739890_at) / RFU BIN1 (11741810_x_at) / Fold change /veh BIN1 (11741810_x_at) / RFU WNT11 (11732464_a_at) / Fold change /veh WNT11 (11732464_a_at) / RFU C10orf10 (11716521_a_at) / Fold change /veh C10orf10 (11716521_a_at) / RFU C5orf56 (11738089_at) / Fold change /veh C5orf56 (11738089_at) / RFU CYB561 (11721691_x_at) / Fold change /veh CYB561 (11721691_x_at) / RFU ANKRD19P (11752326_a_at) / Fold change /veh ANKRD19P (11752326_a_at) / RFU OR2T12 /// OR2T33 /// OR2T8 (11738714_s_at) / Fold change /veh OR2T12 /// OR2T33 /// OR2T8 (11738714_s_at) / RFU VCAN (11748164_a_at) / Fold change /veh VCAN (11748164_a_at) / RFU JSRP1 (11732532_at) / Fold change /veh JSRP1 (11732532_at) / RFU KRTAP10-11 (11738290_x_at) / Fold change /veh KRTAP10-11 (11738290_x_at) / RFU MYO3A (11730013_a_at) / Fold change /veh MYO3A (11730013_a_at) / RFU EBF3 (11725865_a_at) / Fold change /veh EBF3 (11725865_a_at) / RFU CAMK2N1 (11719241_x_at) / Fold change /veh CAMK2N1 (11719241_x_at) / RFU C5orf56 (11738088_a_at) / Fold change /veh C5orf56 (11738088_a_at) / RFU OLFML3 (11715873_a_at) / Fold change /veh OLFML3 (11715873_a_at) / RFU LOC100653217 /// NTM (11731650_a_at) / Fold change /veh LOC100653217 /// NTM (11731650_a_at) / RFU MAPK11 (11762145_a_at) / Fold change /veh MAPK11 (11762145_a_at) / RFU FIZ1 (11724087_x_at) / Fold change /veh FIZ1 (11724087_x_at) / RFU OASL (11726364_x_at) / Fold change /veh OASL (11726364_x_at) / RFU SOX15 (11748057_x_at) / Fold change /veh SOX15 (11748057_x_at) / RFU CD79A (11719716_a_at) / Fold change /veh CD79A (11719716_a_at) / RFU HIST1H1D (11736915_at) / Fold change /veh HIST1H1D (11736915_at) / RFU CASKIN2 (11723855_a_at) / Fold change /veh CASKIN2 (11723855_a_at) / RFU LOC730098 (11760151_x_at) / Fold change /veh LOC730098 (11760151_x_at) / RFU OR4N2 (11742367_at) / Fold change /veh OR4N2 (11742367_at) / RFU PRRT2 (11749266_a_at) / Fold change /veh PRRT2 (11749266_a_at) / RFU SNX32 (11753110_a_at) / Fold change /veh SNX32 (11753110_a_at) / RFU CDHR5 (11726645_a_at) / Fold change /veh CDHR5 (11726645_a_at) / RFU RCAN1 (11760418_a_at) / Fold change /veh RCAN1 (11760418_a_at) / RFU FAM167A (11723789_a_at) / Fold change /veh FAM167A (11723789_a_at) / RFU FAM26E (11764081_at) / Fold change /veh FAM26E (11764081_at) / RFU ISYNA1 (11749810_s_at) / Fold change /veh ISYNA1 (11749810_s_at) / RFU ACY1 (11761880_at) / Fold change /veh ACY1 (11761880_at) / RFU 11764098_at / Fold change /veh 11764098_at / RFU SAMD14 (11745864_x_at) / Fold change /veh SAMD14 (11745864_x_at) / RFU NPB (11741838_a_at) / Fold change /veh NPB (11741838_a_at) / RFU TMPRSS6 (11731388_a_at) / Fold change /veh TMPRSS6 (11731388_a_at) / RFU KRTAP10-2 (11738614_at) / Fold change /veh KRTAP10-2 (11738614_at) / RFU ARHGAP8 /// PRR5-ARHGAP8 (11727945_x_at) / Fold change /veh ARHGAP8 /// PRR5-ARHGAP8 (11727945_x_at) / RFU KRTAP5-7 /// NADSYN1 (11734609_at) / Fold change /veh KRTAP5-7 /// NADSYN1 (11734609_at) / RFU RASL12 (11751679_a_at) / Fold change /veh RASL12 (11751679_a_at) / RFU CDKN2B (11736163_a_at) / Fold change /veh CDKN2B (11736163_a_at) / RFU PRF1 (11729649_at) / Fold change /veh PRF1 (11729649_at) / RFU, ZNF638 /// ZNF638-IT1 / Fold change vs veh, ZNF638 /// ZNF638-IT1 / RFU, PANK3 / Fold change vs veh, PANK3 / RFU, SH3YL1 / Fold change vs veh, SH3YL1 / RFU, ZEB2 / Fold change vs veh, ZEB2 / RFU, NRIP1 / Fold change vs veh, NRIP1 / RFU, PTTG1IP / Fold change vs veh, PTTG1IP / RFU, CAPN2 / Fold change vs veh, CAPN2 / RFU, MED14 / Fold change vs veh, MED14 / RFU, SNORA58 / Fold change vs veh, SNORA58 / RFU, C1orf63 / Fold change vs veh, C1orf63 / RFU, LRRFIP1 / Fold change vs veh, LRRFIP1 / RFU, NDUFAF7 / Fold change vs veh, NDUFAF7 / RFU, SLC12A2 / Fold change vs veh, SLC12A2 / RFU, IBTK / Fold change vs veh, IBTK / RFU, ESF1 / Fold change vs veh, ESF1 / Fold change vs veh, TMEM50B / RFU, TAOK1 / Fold change vs veh, TAOK1 / RFU, ACBD3 / Fold change vs veh, ACBD3 / RFU, TMA16 / Fold change vs veh, TMA16 / RFU, RWDD3 / Fold change vs veh, RWDD3 / RFU, BCAT1 / Fold change vs veh, BCAT1 / RFU, EDEM3 / Fold change vs veh, EDEM3 / RFU, TMEM33 / Fold change vs veh, TMEM33 / RFU, WDR75 / Fold change vs veh, WDR75 / RFU, AHCTF1 / Fold change vs veh, AHCTF1 / RFU, TFRC / Fold change vs veh, TFRC / RFU, ZDHHC17 / Fold change vs veh, ZDHHC17 / RFU, NOM1 / Fold change vs veh, NOM1 / RFU, ARL8B / Fold change vs veh, ARL8B / RFU, ZBTB11 / Fold change vs veh, ZBTB11 / RFU, TAMM41 / Fold change vs veh, TAMM41 / RFU, KIAA1704 /// LOC100996395 / Fold change vs veh, KIAA1704 /// LOC100996395 / RFU, ING1 / Fold change vs veh, ING1 / RFU, TRMT61B / Fold change vs veh, TRMT61B / RFU, FUBP3 / Fold change vs veh, FUBP3 / RFU, TP53 / Fold change vs veh, TP53 / RFU, TNKS2 / Fold change vs veh, TNKS2 / RFU, ZFP14 / Fold change vs veh, ZFP14 / RFU, ACTR2 / Fold change vs veh, ACTR2 / RFU, PPP3R1 / Fold change vs veh, PPP3R1 / RFU, PIK3R1 / Fold change vs veh, PIK3R1 / RFU, HNRNPA1 / Fold change vs veh, HNRNPA1 / RFU, RNF170 / Fold change vs veh, RNF170 / RFU, ZNF28 / Fold change vs veh, ZNF28 / RFU, RNGTT / Fold change vs veh, RNGTT / RFU, OGT / Fold change vs veh, OGT / RFU, BRD1 / Fold change vs veh, BRD1 / RFU, MARS / Fold change vs veh, MARS / RFU, ZNF655 / Fold change vs veh, ZNF655 / RFU, FAHD1 / Fold change vs veh, FAHD1 / RFU, BDP1 / Fold change vs veh, BDP1 / RFU, LRRCC1 / Fold change vs veh, LRRCC1 / RFU, ARID1A / Fold change vs veh, ARID1A / RFU, ZNF146 / Fold change vs veh, ZNF146 / RFU, ZNF330 / Fold change vs veh, ZNF330 / RFU, GPN3 / Fold change vs veh, GPN3 / RFU, C9orf123 / Fold change vs veh, C9orf123 / RFU, N4BP2L2 / Fold change vs veh, N4BP2L2 / RFU, ARFIP1 / Fold change vs veh, ARFIP1 / RFU, FAM179B / Fold change vs veh, FAM179B / RFU, BCL10 / Fold change vs veh, BCL10 / RFU, UHRF1BP1L / Fold change vs veh, UHRF1BP1L / RFU, BET1 / Fold change vs veh, BET1 / RFU, CNOT2 / Fold change vs veh, CNOT2 / RFU, ZNF268 / Fold change vs veh, ZNF268 / Fold change vs veh, ZNF507 / RFU, DGCR2 / Fold change vs veh, DGCR2 / RFU, WDSUB1 / Fold change vs veh, WDSUB1 / Fold change vs veh, HSP90B1 /// MIR3652 / RFU, ADSS / Fold change vs veh, ADSS / RFU, GK / Fold change vs veh, GK / RFU, ZNF148 / Fold change vs veh, ZNF148 / RFU, TAF9 / Fold change vs veh, TAF9 / RFU, SLC1A5 / Fold change vs veh, SLC1A5 / RFU, SLMO2 / Fold change vs veh, SLMO2 / RFU, ABCC4 / Fold change vs veh, ABCC4 / RFU, LOC101060439 /// RAP1B / Fold change vs veh, LOC101060439 /// RAP1B / RFU, RFX7 / Fold change vs veh, RFX7 / RFU, GTPBP10 / Fold change vs veh, GTPBP10 / RFU, CNEP1R1 / Fold change vs veh, CNEP1R1 / RFU, BIVM-ERCC5 /// ERCC5 / Fold change vs veh, BIVM-ERCC5 /// ERCC5 / RFU, ILF3 / Fold change vs veh, ILF3 / RFU 11762660_at / Fold change /veh 11762660_at / RFU VCAN (11757783_s_at) / Fold change /veh VCAN (11757783_s_at) / RFU DDX43 (11728927_at) / Fold change /veh DDX43 (11728927_at) / RFU KRT8 (11758188_x_at) / Fold change /veh KRT8 (11758188_x_at) / RFU NKD1 (11759106_at) / Fold change /veh NKD1 (11759106_at) / RFU SRD5A1 (11742802_a_at) / Fold change /veh SRD5A1 (11742802_a_at) / RFU TPSAB1 /// TPSB2 (11721975_s_at) / Fold change /veh TPSAB1 /// TPSB2 (11721975_s_at) / RFU GSTM3 (11746129_a_at) / Fold change /veh GSTM3 (11746129_a_at) / RFU IL23R (11737362_x_at) / Fold change /veh IL23R (11737362_x_at) / RFU TMEM51 (11727254_a_at) / Fold change /veh TMEM51 (11727254_a_at) / RFU PIWIL2 (11732686_x_at) / Fold change /veh PIWIL2 (11732686_x_at) / RFU ORM1 (11744905_x_at) / Fold change /veh ORM1 (11744905_x_at) / RFU CCDC152 (11743942_at) / Fold change /veh CCDC152 (11743942_at) / RFU ECM1 (11717891_a_at) / Fold change /veh ECM1 (11717891_a_at) / RFU IL23R (11748794_a_at) / Fold change /veh IL23R (11748794_a_at) / RFU TNFAIP8L3 (11732012_x_at) / Fold change /veh TNFAIP8L3 (11732012_x_at) / RFU MBOAT4 (11741988_at) / Fold change /veh MBOAT4 (11741988_at) / RFU 11764193_at / Fold change /veh 11764193_at / RFU TMEM53 (11763286_at) / Fold change /veh TMEM53 (11763286_at) / RFU MAGEB2 (11727129_at) / Fold change /veh MAGEB2 (11727129_at) / RFU TMEM200A (11744735_a_at) / Fold change /veh TMEM200A (11744735_a_at) / RFU CCDC152 (11751479_a_at) / Fold change /veh CCDC152 (11751479_a_at) / RFU FAM211A (11726209_a_at) / Fold change /veh FAM211A (11726209_a_at) / RFU RGS16 (11746705_a_at) / Fold change /veh RGS16 (11746705_a_at) / RFU VCAN (11755009_s_at) / Fold change /veh VCAN (11755009_s_at) / RFU RHOB (11743442_s_at) / Fold change /veh RHOB (11743442_s_at) / RFU RGS16 (11720943_a_at) / Fold change /veh RGS16 (11720943_a_at) / RFU RGS16 (11720944_at) / Fold change /veh RGS16 (11720944_at) / RFU, VPS4B / Fold change vs veh, VPS4B / RFU, CREB1 / Fold change vs veh, CREB1 / RFU, DNAJC13 / Fold change vs veh, DNAJC13 / RFU, GNAQ / Fold change vs veh, GNAQ / RFU, CDK5R1 / Fold change vs veh, CDK5R1 / RFU, ZRANB3 / Fold change vs veh, ZRANB3 / RFU, CUL4A / Fold change vs veh, CUL4A / RFU, CCNY / Fold change vs veh, CCNY / RFU, UFL1 / Fold change vs veh, UFL1 / RFU, COG3 / Fold change vs veh, COG3 / RFU, DIAPH2 / Fold change vs veh, DIAPH2 / RFU, SKA2 / Fold change vs veh, SKA2 / RFU, AFF3 / Fold change vs veh, AFF3 / RFU, LMF1 / Fold change vs veh, LMF1 / RFU, IPO11 / Fold change vs veh, IPO11 / RFU, DFFB / Fold change vs veh, DFFB / RFU, FOXP1 / Fold change vs veh, FOXP1 / RFU, CARD8 / Fold change vs veh, CARD8 / RFU, STRN3 / Fold change vs veh, STRN3 / RFU, ADK / Fold change vs veh, ADK / RFU, RASSF2 / Fold change vs veh, RASSF2 / RFU, WIPF1 / Fold change vs veh, WIPF1 / RFU, LARP1B / Fold change vs veh, LARP1B / RFU, RASA1 / Fold change vs veh, RASA1 / RFU, RB1 / Fold change vs veh, RB1 / RFU, PPFIA1 / Fold change vs veh, PPFIA1 / RFU, MAT2A / Fold change vs veh, MAT2A / RFU, CCT5 / Fold change vs veh, CCT5 / RFU, WDR92 / Fold change vs veh, WDR92 / RFU, CUX1 / Fold change vs veh, CUX1 / RFU, TTC7A / Fold change vs veh, TTC7A / RFU, TMEM135 / Fold change vs veh, TMEM135 / RFU, DEPTOR / Fold change vs veh, DEPTOR / RFU, CPM / Fold change vs veh, CPM / RFU, DNAJB6 / Fold change vs veh, DNAJB6 / RFU, CACNA2D3 / Fold change vs veh, CACNA2D3 / RFU, DTX4 / Fold change vs veh, DTX4 / RFU, TFCP2 / Fold change vs veh, TFCP2 / RFU, GMCL1 /// GMCL1P1 / Fold change vs veh, GMCL1 /// GMCL1P1 / RFU, AEBP2 / Fold change vs veh, AEBP2 / RFU, SNHG1 /// SNORD22 /// SNORD25 /// SNORD26 /// SNORD27 /// SNORD28 /// SNORD29 /// SNORD31 / Fold change vs veh, SNHG1 /// SNORD22 /// SNORD25 /// SNORD26 /// SNORD27 /// SNORD28 /// SNORD29 /// SNORD31 / Fold change (Aza/veh), C12orf56 (ProbeSet 11735607_a_at) / Fold change (ACY-1035/veh), C12orf56 (ProbeSet 11735607_a_at) / Fold change (Aza/veh), FGFR1OP (ProbeSet 11751329_s_at) / Fold change (ACY-1035/veh), FGFR1OP (ProbeSet 11751329_s_at) / Fold change (Aza/veh), VPS36 (ProbeSet 11739960_a_at) / Fold change (ACY-1035/veh), VPS36 (ProbeSet 11739960_a_at) / RFU SYPL1 (11715823_x_at) / Fold change /veh SYPL1 (11715823_x_at) / RFU IGFBP7 (11715501_s_at) / Fold change /veh IGFBP7 (11715501_s_at) / RFU REEP3 (11722064_at) / Fold change /veh REEP3 (11722064_at) / RFU IGLL1 (11728026_x_at) / Fold change /veh IGLL1 (11728026_x_at): dose or concentration left out as unconfirmed",
  "settings": "MV-4-11 cells, 48 hours",
  "data": [
    {"compound": "Nc1ncn([C@@H]2O[C@H](CO)[C@@H](O)[C@H]2O)c(=O)n1", "note": "[azacitidine]", "values": [
      {"measurement": "Fold change /veh PRF1 (11729649_at)", "result": 1.08}
    ]}
  ]
}
